In patent publication US20180184661A1, “Improved Herbicidal Composition, Method and Use” (Arysta LifeScience Benelux Sprl, priority 2015, published 2018):

Columns and labels:
Experiment in all cases: Pre-emergence field trial in citrus, residual broadleaf weed control
Assay type in all cases: in vivo
[1] = system: Sow thistle (Sonchus tenerrimus, SONTE); settings: Spain, diuron 900 and/or oxyfluorfen 90 g a.i./ha, rated 15 to 90 days after application
Experimental: (§1) Field trials were conducted in citrus crops using standard herbicide small plot research methodology. Plots varied from 12 square meters (m^2) to 30 m^2 (2×15) with 3 to 4 replicates per treatment. The citrus crops were grown using normal cultural practices for the respective areas for the trials, using normal planting, fertilization, watering, flooding and maintenance for pests to ensure good growth of the crop and the weeds.
(§2) All treatments in the field trials were applied with a knapsack sprayer using compressed air as propellant. The sprayer was equipped with a boom and flat fan nozzles, and calibrated to apply homogeneously a spray volume of 200 to 400 litres/hectare at constant pressure.
(§3) Diuron in combination with oxyfluorfen, in the form of a ready for use formulation, was compared to a diuron formulation and an oxyfluorfen formulation, at dose rates of respectively […]., 900 g a.i./ha and 90 g a.i./ha.
(§4) Treatments were rated at different intervals from treatment to evaluation, from 15 to 120 days after application as compared to the untreated control plants. Assessment were done recording the percentage of ground covered by weeds and the visual efficacy on a scale of 0 to 100 percent where 0 corresponds to no weed control and 100 corresponds to complete weed control.
(§5) Trials were conducted under field conditions in Spain. Trial sites were located in commercially grown European citrus crop. The citrus trees were grown using normal cultural practices for fertilization, seeding and maintenance to ensure good growth of the crop and the weeds. The trials were conducted using normal research methodology. Plots varied from 12 square meters (m^2) to 30 m^2 (2×15) with 3 to 4 replicates per treatment. All treatment results are an average of 3 to 4 replicates. The trials had naturally occurring populations of weeds. The weed spectrum included, but was not limited to black nightshade (Solanum nigrum; SOLNI), Sow thistle (Sonchus tenerrimus, SONTE), fleabane (Conyza bonariensis, ERIBO), DIPER, hairy fleabane (Conyza bonariensis, ERIBO), redroot pigweed (Amaranthus retroflexus, AMA).
(§6) Treatments consisted applications of diuron+oxyfluorfen, diuron solo or oxyfluorfen solo. […] Colby's equation was used to determine the herbicidal effects expected from the mixtures (Colby, S. R. Calculation of the synergistic and antagonistic response of herbicide combinations. Weeds 1967, 15, 20-22.). The following equation was used to calculate the expected activity of mixtures containing two active ingredients, A and B:
(§7) A=observed efficacy of active ingredient A at the s e concentration as used in the mixture. B=observed efficacy of active ingredient B at the s e concentration as used in the mixture.
(§8) Ob=Observed visual weed control, Ex=Expected weed control as defined by Colby Equation

[2] = system: Wall-rocket (Diplotaxis erucoides, DIPER); settings: trial SRES14 061 230 HE, Spain, diuron 900 and/or oxyfluorfen 90 g a.i./ha, rated 15 to 90 days after application
Experimental: as §1, §2, §3, §4, §5, §6, §7, §8

[3] = system: black nightshade (Solanum nigrum, SOLNI); settings: trial SRES14 059 230 HE, Spain, diuron 900 and/or oxyfluorfen 90 g a.i./ha, rated 15 to 90 days after application
Experimental: as §1, §2, §3, §4, §5, §6, §7, §8

[4] = system: fleabane (Conyza bonariensis, ERIBO); settings: Spain, diuron 900 and/or oxyfluorfen 90 g a.i./ha, rated 15 to 90 days after application
Experimental: as §1, §2, §3, §4, §5, §6, §7, §8

[5] = system: pigweed, redroot (Amaranthus retroflexus, AMARE); settings: trial SRES14 061 230 HE, Spain, diuron 900 and/or oxyfluorfen 90 g a.i./ha, rated 15 to 90 days after application
Experimental: as §1, §2, §3, §4, §5, §6, §7, §8

SMILES	% Control SONTE Obs ([1]; trial SRES14 059 230 HE) [%]	% Control SONTE Obs ([1]; trial SRES14 060 230 HE) [%]	% Control DIPER Obs [2] [%]	% Control SOLNI Obs [3] [%]	% Control ERIBO Obs ([4]; trial SRES14 059 230 HE) [%]	% Control ERIBO Obs ([4]; trial SRES14 060 230 HE) [%]	% Control ERIBO Obs ([4]; trial SRES14 061 230 HE) [%]	% Control AMARE Obs [5] [%]
CN(C)C(=O)Nc1ccc(Cl)c(Cl)c1 [Diuron, N′-(3,4-dichlorophenyl)-N,N-dimethylurea]	57.5	45	88.8	55	62.5	46.3	28.8	53.8
CCOc1cc(Oc2ccc(C(F)(F)F)cc2Cl)ccc1[N+](=O)[O-] [Oxyfluorfen, 2-chloro-1-(3-ethoxy-4-nitrophenoxy)-4-(trifluoromethyl)benzene]	28.8	10	20	47.5	35	47.5	43.8	45
